Source: patent publication US8680139B2 (Progenra, priority 2009, dated 2014)

Target: T1, USP7 (Homo sapiens, UniProt Q93009)
T1 construct: full length human USP7 protein; made in house
Assay: USP7, Ub-PLA2 assay
Type: biochemical
Conditions: Ub-PLA2 / NBD C6-HPC fluorescence, 30 minute preincubation; read-out: EC50 for inhibition of USP7
Method: The purpose of this assay is to measure the inhibition of USP7 by various compounds of the invention synthesized according to the above-described methods. […] The vehicle control was 100% (v/v) DMSO. 1.6 μL aliquots of the diluted test compound and controls were dispensed into individual wells in a black walled 96 well plate. […] The data were normalized within a plate relative to the control wells using the equation % inhibition=(100−(((RFUcompound−RFUmean NEM) / (RFUmean DMSO−RFUmean NEM))×100)).

T1 sequence (Q93009 whole entry): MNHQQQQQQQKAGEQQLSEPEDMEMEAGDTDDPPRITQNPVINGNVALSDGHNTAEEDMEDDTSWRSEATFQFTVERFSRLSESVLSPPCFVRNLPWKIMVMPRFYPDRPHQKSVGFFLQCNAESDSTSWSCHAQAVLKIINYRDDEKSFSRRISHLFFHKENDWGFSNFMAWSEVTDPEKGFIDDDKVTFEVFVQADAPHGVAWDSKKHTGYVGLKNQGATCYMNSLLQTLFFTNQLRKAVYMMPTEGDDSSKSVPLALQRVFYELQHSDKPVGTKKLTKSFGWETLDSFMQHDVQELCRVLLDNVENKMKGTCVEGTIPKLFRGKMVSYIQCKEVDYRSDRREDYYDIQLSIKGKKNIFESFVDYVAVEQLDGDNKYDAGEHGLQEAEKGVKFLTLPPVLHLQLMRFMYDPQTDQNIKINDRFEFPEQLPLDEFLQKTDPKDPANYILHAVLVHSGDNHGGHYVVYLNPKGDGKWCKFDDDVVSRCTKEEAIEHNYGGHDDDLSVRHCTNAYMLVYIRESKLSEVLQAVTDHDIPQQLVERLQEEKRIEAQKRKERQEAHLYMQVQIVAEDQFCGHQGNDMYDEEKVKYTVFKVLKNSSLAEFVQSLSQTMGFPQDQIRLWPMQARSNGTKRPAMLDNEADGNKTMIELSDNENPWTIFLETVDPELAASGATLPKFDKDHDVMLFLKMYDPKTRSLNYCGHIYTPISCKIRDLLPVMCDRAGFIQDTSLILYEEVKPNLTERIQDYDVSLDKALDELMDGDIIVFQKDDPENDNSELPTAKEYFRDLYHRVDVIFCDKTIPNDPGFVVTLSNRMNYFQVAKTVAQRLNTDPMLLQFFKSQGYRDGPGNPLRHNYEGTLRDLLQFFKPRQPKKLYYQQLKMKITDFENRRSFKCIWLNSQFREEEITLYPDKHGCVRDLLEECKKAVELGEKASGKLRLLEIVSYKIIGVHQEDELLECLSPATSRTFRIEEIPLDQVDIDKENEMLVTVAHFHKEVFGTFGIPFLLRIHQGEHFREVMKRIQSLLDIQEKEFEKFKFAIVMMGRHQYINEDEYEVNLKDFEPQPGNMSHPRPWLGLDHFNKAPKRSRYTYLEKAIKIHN

Row | EC50 [µM] | SMILES
1 | > 10 | O=C(c1cccc([N+](=O)[O-])c1)c1cc([N+](=O)[O-])c(Sc2ccc(Cl)cc2Cl)s1 [Example 31, [5-(2,4-dichlorophenyl)sulfanyl-4-nitro-2-thienyl]-(3-nitrophenyl)methanone]
2 | 1 to 10 | O=Cc1cc([N+](=O)[O-])c(Sc2ccc(Cl)cc2Cl)s1 [Example 32, 5-(2,4-dichlorophenylsulfanyl)-4-nitrothiophene-2-carbaldehyde]
3 | > 10 | O=[N+]([O-])c1cc(Br)sc1Sc1ccc(Cl)cc1Cl [Example 33, 5-bromo-2-(2,4-dichlorophenyl)sulfanyl-3-nitro-thiophene]
4 | > 10 | CC(=O)c1cc([N+](=O)[O-])c([S+]([O-])c2ccc(Cl)cc2Cl)s1 (stereo not drawn) [Example 34, 1-[5-(2,4-dichlorophenyl)sulfinyl-4-nitro-2-thienyl]ethanone]
5 | 1 to 10 | CC(=O)c1cc([N+](=O)[O-])c(S(=O)(=O)c2ccc(Cl)cc2Cl)s1 [Example 35, 1-[5-(2,4-dichlorophenyl)sulfonyl-4-nitro-2-thienyl]ethanone]
6 | 1 to 10 | CC(=O)c1cc([N+](=O)[O-])c(Sc2c(F)c(F)cc(F)c2F)s1 [Example 36, 1-[4-nitro-5-(2,3,5,6-tetrafluorophenyl)sulfanyl-2-thienyl]ethanone]
7 | 1 to 10 | CC(=O)c1cc([N+](=O)[O-])c(Sc2cnc3ccccc3n2)s1 [Example 37, 1-(4-nitro-5-quinoxalin-2-ylsulfanyl-2-thienyl)ethanone]
8 | > 10 | CC(=O)c1cc([N+](=O)[O-])c(Sc2ccc3c(C)cc(=O)oc3c2)s1 [Example 38, 7-[(5-acetyl-3-nitro-2-thienyl)sulfanyl]-4-methyl-chromen-2-one]
9 | > 10 | CC(=O)c1cc([N+](=O)[O-])c(Sc2ccncc2Cl)s1 [Example 39, 1-[5-[(3-chloro-4-pyridyl)sulfanyl]-4-nitro-2-thienyl]ethanone]
10 | 1 to 10 | CC(=O)c1cc([N+](=O)[O-])c(Sc2cc(C(F)(F)F)cc(C(F)(F)F)c2)s1 [Example 40, 1-[5-[3,5-bis(trifluoromethyl)phenyl]sulfanyl-4-nitro-2-thienyl]ethanone]
11 | > 10 | CCOC(=O)c1cc([N+](=O)[O-])c(Sc2cccc(Cl)c2Cl)s1 [Example 41, Ethyl 5-(2,3-dichlorophenylsulfanyl)-4-nitrothiophene-2-carboxylate]
12 | 1 to 10 | CNC(=O)c1cc([N+](=O)[O-])c(Sc2cccc(Cl)c2Cl)s1 [Example 42, 5-(2,3-dichlorophenylsulfanyl)-N-methyl-4-nitrothiophene-2-carboxamide]
13 | 1 to 10 | COC(=O)c1cc([N+](=O)[O-])c(Sc2c(Cl)cncc2Cl)s1 [Example 43, Methyl 5-[(3,5-dichloro-4-pyridyl)sulfanyl]-4-nitro-thiophene-2-carboxylate]
14 | 1 to 10 | CC(C)NC(=O)c1cc([N+](=O)[O-])c(Sc2c(Cl)cncc2Cl)s1 [Example 44, 5-[(3,5-dichloro-4-pyridyl)sulfanyl]-N-isopropyl-4-nitro-thiophene-2-carboxamide]
15 | 1 to 10 | O=C(NCc1ccccc1)c1cc([N+](=O)[O-])c(Sc2c(Cl)cncc2Cl)s1 [Example 45, N-benzyl-5-[(3,5-dichloro-4-pyridyl)sulfanyl]-4-nitro-thiophene-2-carboxamide]
16 | 1 to 10 | NC(=O)c1cc([N+](=O)[O-])c(Sc2c(Cl)cncc2Cl)s1 [Example 46, 5-[(3,5-dichloro-4-pyridyl)sulfanyl]-4-nitro-thiophene-2-carboxamide]
17 | 1 to 10 | CN(C)CCNC(=O)c1cc([N+](=O)[O-])c(Sc2c(Cl)cncc2Cl)s1 [Example 48, 5-[(3,5-dichloro-4-pyridyl)sulfanyl]-N-(2-dimethylaminoethyl)-4-nitro-thiophene-2-carboxamide]
18 | 1 to 10 | CN(C)C(=O)c1cc([N+](=O)[O-])c(Sc2c(Cl)cncc2Cl)s1 [Example 49, 5-[(3,5-dichloro-4-pyridyl)sulfanyl]-N,N-dimethyl-4-nitro-thiophene-2-carboxamide]
19 | 1 to 10 | CSCCNC(=O)c1cc([N+](=O)[O-])c(Sc2c(Cl)cncc2Cl)s1 [Example 50, 5-((3,5-dichloropyridin-4-yl)thio)-N-(2-(methylthio)ethyl)-4-nitrothiophene-2-carboxamide]
20 | 1 to 10 | COc1ccccc1CNC(=O)c1cc([N+](=O)[O-])c(Sc2c(Cl)cncc2Cl)s1 [Example 51, 5-((3,5-dichloropyridin-4-yl)thio)-N-(2-methoxybenzyl)-4-nitrothiophene-2-carboxamide]
21 | 1 to 10 | O=C(NCc1ccco1)c1cc([N+](=O)[O-])c(Sc2c(Cl)cncc2Cl)s1 [Example 52, 5-((3,5-dichloropyridin-4-yl)thio)-N-(furan-2-ylmethyl)-4-nitrothiophene-2-carboxamide]
22 | 1 to 10 | COCCNC(=O)c1cc([N+](=O)[O-])c(Sc2c(Cl)cncc2Cl)s1 [Example 53, 5-((3,5-dichloropyridin-4-yl)thio)-N-(2-methoxyethyl)-4-nitrothiophene-2-carboxamide]
23 | 1 to 10 | O=C(NCCOc1ccccc1)c1cc([N+](=O)[O-])c(Sc2c(Cl)cncc2Cl)s1 [Example 54, 5-((3,5-dichloropyridin-4-yl)thio)-4-nitro-N-(2-phenoxyethyl)thiophene-2-carboxamide]
24 | 1 to 10 | O=C(NCCc1cccs1)c1cc([N+](=O)[O-])c(Sc2c(Cl)cncc2Cl)s1 [Example 55, 5-((3,5-dichloropyridin-4-yl)thio)-4-nitro-N-(2-(thiophen-2-yl)ethyl)thiophene-2-carboxamide]
25 | 1 to 10 | Cc1ccsc1CNC(=O)c1cc([N+](=O)[O-])c(Sc2c(Cl)cncc2Cl)s1 [Example 56, 5-((3,5-dichloropyridin-4-yl)thio)-N-((3-methylthiophen-2-yl)methyl)-4-nitrothiophene-2-carboxamide]
26 | 1 to 10 | O=C(NCc1cccc(Cl)c1)c1cc([N+](=O)[O-])c(Sc2c(Cl)cncc2Cl)s1 [Example 57, N-(3-chlorobenzyl)-5-((3,5-dichloropyridin-4-yl)thio)-4-nitrothiophene-2-carboxamide]
27 | 1 to 10 | O=C(NCc1cccc(-c2ccccc2)c1)c1cc([N+](=O)[O-])c(Sc2c(Cl)cncc2Cl)s1 [Example 58, N-([1,1′-biphenyl]-3-ylmethyl)-5-((3,5-dichloropyridin-4-yl)thio)-4-nitrothiophene-2-carboxamide]
28 | 1 to 10 | O=C(NCCN1CCOCC1)c1cc([N+](=O)[O-])c(Sc2c(Cl)cncc2Cl)s1 [Example 59, 5-((3,5-dichloropyridin-4-yl)thio)-N-(2-morpholinoethyl)-4-nitrothiophene-2-carboxamide]
29 | 1 to 10 | O=C(NCc1ccccc1Cl)c1cc([N+](=O)[O-])c(Sc2c(Cl)cncc2Cl)s1 [Example 60, N-(2-chlorobenzyl)-5-((3,5-dichloropyridin-4-yl)thio)-4-nitrothiophene-2-carboxamide]
30 | 1 to 10 | O=C(c1cc([N+](=O)[O-])c(Sc2c(Cl)cncc2Cl)s1)N1CCN(CCO)CC1 [Example 61, (5-((3,5-dichloropyridin-4-yl)thio)-4-nitrothiophen-2-yl)(4-(2-hydroxyethyl)piperazin-1-yl)methanone]
